Test results reported in patent US7034036B2, “Inhibitors of ABC drug transporters at the blood-brain barrier” (Pain Therapeutics, Inc., priority 2000, dated 2006).

Tests used:
mice [1] = test: Tolerance to oxycodone in mice, parallel experiments; type: in vivo
PGP1a = test: Vanadate-sensitive PGP ATPase activity in PGP membranes; type: biochemical
Procedure: The test substances were incubated in the membranes and supplemented with MgATP, with and without sodium orthovanadate present. Orthovanadate inhibits PGP by trapping MgADP in the nucleotide binding site. Thus, the ATPase activity measured in the presence of orthovanadate represents non-PGP ATPase activity and was subtracted from the activity generated without orthovanadate to yield vanadate-sensitive ATPase activity.
ATPase assays were conducted in 96-well microtiter plates. A 0.06 ml reaction mixture containing 40 μg PGP membranes, test substance, and 4 mM MgATP, in buffer containing 50 mM Tris-MES, 2 mM EGTA, 50 mM KCl, 2 mM dithiothreitol, and 5 mM sodium azide, plus organic solvent was incubated at 37° C. for 20 minutes. […] Identical reaction mixtures containing 100 μM sodium orthovanadate were assayed in parallel. The reactions were stopped by the addition of 30 μl of 10% SDS+Antifoam A. The incubations were followed with addition of 200 μl of 35 mM Ammonium Molybdate in 15 mM Zinc Acetate:10% Ascorbic Acid (1:4) and incubated for an additional 20 minutes at 37° C. Additionally, 0.06 ml aliquots of potassium phosphate standards prepared in the buffer described above, were incubated in the plates containing the test and control substances, with SDS and detection reagent added. The liberation of inorganic phosphate was detected by its absorbance at 800 nm and quantitated by comparing the absorbance to a phosphate standard curve. The concentration dependence of the PGP was analyzed for evidence of saturation of PGP-ATPase activity, and apparent kinetic parameters were calculated by non-linear regression.

mice [2] = test: Tail flick anti-nociception, naltrexone given with morphine from day 1 (Groups C, D, combined analysis); type: in vivo; parameters: Enhancement of Latency (tail flick) / Enhancement of Latency by Naltrexone (tail flick): unit not given here
Procedure: In a third series of experiments, 40 male mice were randomized into 5 groups of eight. All mice were administered single 3 mg/kg morphine daily (b.i.d.), beginning on Day 1.
In a final series of experiments, 40 female mice were randomized into 5 groups of eight. All mice were administered single 3 mg/kg morphine daily (b.i.d.), beginning on Day 1.

O=C1CC[C@@]2(O)[C@H]3Cc4ccc(O)c5c4[C@@]2(CCN3CC2CC2)[C@H]1O5 [Naltrexone, naltrexone]
Development of tolerance to oxycodone (mice [1]; female mice, 1 or 5 mg/kg oxycodone with 1 pg/kg, 1 ng/kg or 1 μg/kg naltrexone or 1 pg/kg nor-BNI): None of the mice developed tolerance | Development of tolerance to oxycodone (mice [1]; male mice, 0.1 mg/kg oxycodone plus 1 ng/kg naltrexone, 1 ng/kg nalmefene or 1 pg/kg nor-BNI): did not develop tolerance | Vanadate-sensitive ATPase Activity (PGP1a; 100 μM): 4.6 nmol/mg/min | Inhibition of the ATPase associated with PGP1a (PGP1a; semi-quantitative assay): shown to inhibit | Enhancement of Latency by Naltrexone (tail flick) (mice [2]; Table 15, combined analysis (title prints Female Mice), Group 2: morphine 3 mg/kg + naltrexone 3 ng/kg b.i.d., Day 1): 12.8 | Enhancement of Latency by Naltrexone (tail flick) (mice [2]; Table 15, combined analysis (title prints Female Mice), Group 2: morphine 3 mg/kg + naltrexone 3 ng/kg b.i.d., Day 3): 9.3 | Enhancement of Latency by Naltrexone (tail flick) (mice [2]; Table 15, combined analysis (title prints Female Mice), Group 2: morphine 3 mg/kg + naltrexone 3 ng/kg b.i.d., Day 5): 5.9 | Enhancement of Latency by Naltrexone (tail flick) (mice [2]; Table 15, combined analysis (title prints Female Mice), Group 2: morphine 3 mg/kg + naltrexone 3 ng/kg b.i.d., Day 8): 5.8 | Enhancement of Latency by Naltrexone (tail flick) (mice [2]; Table 15, combined analysis (title prints Female Mice), Group 2: morphine 3 mg/kg + naltrexone 3 ng/kg b.i.d., Day 10): 3.5 | Enhancement of Latency by Naltrexone (tail flick) (mice [2]; Table 15, combined analysis (title prints Female Mice), Group 3: morphine 3 mg/kg + naltrexone 30 ng/kg b.i.d., Day 1): 12.4 | Enhancement of Latency by Naltrexone (tail flick) (mice [2]; Table 15, combined analysis (title prints Female Mice), Group 3: morphine 3 mg/kg + naltrexone 30 ng/kg b.i.d., Day 3): 10.0 | Enhancement of Latency by Naltrexone (tail flick) (mice [2]; Table 15, combined analysis (title prints Female Mice), Group 3: morphine 3 mg/kg + naltrexone 30 ng/kg b.i.d., Day 5): 7.2 | Enhancement of Latency by Naltrexone (tail flick) (mice [2]; Table 15, combined analysis (title prints Female Mice), Group 3: morphine 3 mg/kg + naltrexone 30 ng/kg b.i.d., Day 8): 4.9 | Enhancement of Latency by Naltrexone (tail flick) (mice [2]; Table 15, combined analysis (title prints Female Mice), Group 3: morphine 3 mg/kg + naltrexone 30 ng/kg b.i.d., Day 10): 6.6 | Enhancement of Latency by Naltrexone (tail flick) (mice [2]; Table 15, combined analysis (title prints Female Mice), Group 4: morphine 3 mg/kg + naltrexone 300 ng/kg b.i.d., Day 1): 15.6 | Enhancement of Latency by Naltrexone (tail flick) (mice [2]; Table 15, combined analysis (title prints Female Mice), Group 4: morphine 3 mg/kg + naltrexone 300 ng/kg b.i.d., Day 3): 12.7 | Enhancement of Latency by Naltrexone (tail flick) (mice [2]; Table 15, combined analysis (title prints Female Mice), Group 4: morphine 3 mg/kg + naltrexone 300 ng/kg b.i.d., Day 5): 6.8 | Enhancement of Latency by Naltrexone (tail flick) (mice [2]; Table 15, combined analysis (title prints Female Mice), Group 4: morphine 3 mg/kg + naltrexone 300 ng/kg b.i.d., Day 8): 4.8 | Enhancement of Latency by Naltrexone (tail flick) (mice [2]; Table 15, combined analysis (title prints Female Mice), Group 4: morphine 3 mg/kg + naltrexone 300 ng/kg b.i.d., Day 10): 6.0 | Enhancement of Latency by Naltrexone (tail flick) (mice [2]; Table 15, combined analysis (title prints Female Mice), Group 5: morphine 3 mg/kg + naltrexone 3000 ng/kg b.i.d., Day 1): 12.9 | Enhancement of Latency by Naltrexone (tail flick) (mice [2]; Table 15, combined analysis (title prints Female Mice), Group 5: morphine 3 mg/kg + naltrexone 3000 ng/kg b.i.d., Day 3): 11.3 | Enhancement of Latency by Naltrexone (tail flick) (mice [2]; Table 15, combined analysis (title prints Female Mice), Group 5: morphine 3 mg/kg + naltrexone 3000 ng/kg b.i.d., Day 5): 7.7 | Enhancement of Latency by Naltrexone (tail flick) (mice [2]; Table 15, combined analysis (title prints Female Mice), Group 5: morphine 3 mg/kg + naltrexone 3000 ng/kg b.i.d., Day 8): 6.2 | Enhancement of Latency by Naltrexone (tail flick) (mice [2]; Table 15, combined analysis (title prints Female Mice), Group 5: morphine 3 mg/kg + naltrexone 3000 ng/kg b.i.d., Day 10): 7.0 | Enhancement of Latency by Naltrexone (tail flick) (mice [2]; female mice, Group 2: morphine 3 mg/kg + naltrexone 3 ng/kg b.i.d. from day 1, Day 1): 12.2 | Enhancement of Latency by Naltrexone (tail flick) (mice [2]; female mice, Group 2: morphine 3 mg/kg + naltrexone 3 ng/kg b.i.d. from day 1, Day 3): 11.0 | Enhancement of Latency by Naltrexone (tail flick) (mice [2]; female mice, Group 2: morphine 3 mg/kg + naltrexone 3 ng/kg b.i.d. from day 1, Day 5): 4.3 | Enhancement of Latency by Naltrexone (tail flick) (mice [2]; female mice, Group 2: morphine 3 mg/kg + naltrexone 3 ng/kg b.i.d. from day 1, Day 7): 6.1 | Enhancement of Latency by Naltrexone (tail flick) (mice [2]; female mice, Group 2: morphine 3 mg/kg + naltrexone 3 ng/kg b.i.d. from day 1, Day 10): 4.4 | Enhancement of Latency by Naltrexone (tail flick) (mice [2]; female mice, Group 2: morphine 3 mg/kg + naltrexone 3 ng/kg b.i.d. from day 1, Day 11, single bolus 10 μg/kg naltrexone in addition): −1.0 | Enhancement of Latency by Naltrexone (tail flick) (mice [2]; female mice, Group 3: morphine 3 mg/kg + naltrexone 30 ng/kg b.i.d. from day 1, Day 1): 12.4 | Enhancement of Latency by Naltrexone (tail flick) (mice [2]; female mice, Group 3: morphine 3 mg/kg + naltrexone 30 ng/kg b.i.d. from day 1, Day 3): 10.7 | Enhancement of Latency by Naltrexone (tail flick) (mice [2]; female mice, Group 3: morphine 3 mg/kg + naltrexone 30 ng/kg b.i.d. from day 1, Day 5): 6.9 | Enhancement of Latency by Naltrexone (tail flick) (mice [2]; female mice, Group 3: morphine 3 mg/kg + naltrexone 30 ng/kg b.i.d. from day 1, Day 7): 2.4 | Enhancement of Latency by Naltrexone (tail flick) (mice [2]; female mice, Group 3: morphine 3 mg/kg + naltrexone 30 ng/kg b.i.d. from day 1, Day 10): 9.3 | Enhancement of Latency by Naltrexone (tail flick) (mice [2]; female mice, Group 3: morphine 3 mg/kg + naltrexone 30 ng/kg b.i.d. from day 1, Day 11, single bolus 10 μg/kg naltrexone in addition): −0.7 | Enhancement of Latency by Naltrexone (tail flick) (mice [2]; female mice, Group 4: morphine 3 mg/kg + naltrexone 300 ng/kg b.i.d. from day 1, Day 1): 15.0 | Enhancement of Latency by Naltrexone (tail flick) (mice [2]; female mice, Group 4: morphine 3 mg/kg + naltrexone 300 ng/kg b.i.d. from day 1, Day 3): 10.3 | Enhancement of Latency by Naltrexone (tail flick) (mice [2]; female mice, Group 4: morphine 3 mg/kg + naltrexone 300 ng/kg b.i.d. from day 1, Day 5): 1.9
